Test results: ChEMBL document CHEMBL1201862, “PubChem BioAssay data set” (2004)
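Dose response: 5 concentrations. Exposure: 48 h. Format: 96-well plates. Endpoint: linear interpolation; highest concentration if not reached. The concentration for 50% growth inhibition is given as GI50.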 Activity calls are given as the source filed them. No stated cut-off is given here; in the data, active = GI50 up to about 1.1 µM and inactive = higher.

How the values were obtained:
Assay in all cases: DTP human tumour cell line panel, 48 h
BT-549 = tested on: BT-549
UO-31 = tested on: UO-31
U-251 = tested on: U-251
EKVX = tested on: EKVX
RXF 393 = tested on: RXF 393
HOP-92 = tested on: HOP-92
NCI/ADR-RES = tested on: NCI/ADR-RES
OVCAR-3 = tested on: OVCAR-3
M14 = tested on: M14
HCT-116 = tested on: HCT-116
UACC-62 = tested on: UACC-62
SK-MEL-5 = tested on: SK-MEL-5
OVCAR-4 = tested on: OVCAR-4
SNB-19 = tested on: SNB-19
NCI-H460 = tested on: NCI-H460
SF-295 = tested on: SF-295
OVCAR-8 = tested on: OVCAR-8
DU-145 = tested on: DU-145
MOLT-4 = tested on: MOLT-4
IGROV-1 = tested on: IGROV-1

**Q.** How did the GI50 (BT-549) turn out when `C=CC(=O)N1C/C(=C\c2ccc(OC)cc2)C(=O)/C(=C/c2ccc(OC)cc2)C1` was run?
**A.** 1.71 µM (inactive)

**Q.** What about the GI50 (UO-31) of the same compound?
**A.** 1.77 µM (inactive)

**Q.** What about the GI50 (U-251) of the same compound?
**A.** 1.97 µM (inactive)

**Q.** And the GI50 (EKVX)?
**A.** 3.35 µM (inactive)

**Q.** What about the GI50 (RXF 393) of the same compound?
**A.** 1.61 µM (inactive)

**Q.** What about the GI50 (HOP-92) of the same compound?
**A.** 6.03 µM (inactive)

**Q.** And the GI50 (NCI/ADR-RES)?
**A.** 3.12 µM (inactive)

**Q.** What about the GI50 (OVCAR-3) of the same compound?
**A.** 1.97 µM (inactive)

**Q.** And the GI50 (M14)?
**A.** 2.15 µM (inactive)

**Q.** What about the GI50 (HCT-116) of the same compound?
**A.** 0.219 µM (active)

**Q.** What about the GI50 (UACC-62) of the same compound?
**A.** 1.94 µM (inactive)

**Q.** What about the GI50 (SK-MEL-5) of the same compound?
**A.** 2.61 µM (inactive)

**Q.** What about the GI50 (OVCAR-4) of the same compound?
**A.** 2.36 µM (inactive)

**Q.** And the GI50 (SNB-19)?
**A.** 7.18 µM (inactive)

**Q.** And the GI50 (NCI-H460)?
**A.** 1.9 µM (inactive)

**Q.** And the GI50 (SF-295)?
**A.** 2.39 µM (inactive)

**Q.** And the GI50 (OVCAR-8)?
**A.** 2.88 µM (inactive)

**Q.** And the GI50 (DU-145)?
**A.** 3.91 µM (inactive)

**Q.** What about the GI50 (MOLT-4) of the same compound?
**A.** 1.76 µM (inactive)

**Q.** And the GI50 (IGROV-1)?
**A.** 2.35 µM (inactive)

**Q.** Which GI50 (BT-549) does the source give for `O=c1cccc(Cl)[nH]1` here?
**A.** > 100 µM (inactive)

**Q.** And the GI50 (UO-31)?
**A.** > 100 µM (inactive)

**Q.** What about the GI50 (U-251) of the same compound?
**A.** > 100 µM (inactive)

**Q.** And the GI50 (EKVX)?
**A.** > 100 µM (inactive)

**Q.** What about the GI50 (RXF 393) of the same compound?
**A.** > 100 µM (inactive)

**Q.** What about the GI50 (HOP-92) of the same compound?
**A.** > 100 µM (inactive)

**Q.** What about the GI50 (NCI/ADR-RES) of the same compound?
**A.** > 100 µM (inactive)

**Q.** And the GI50 (OVCAR-3)?
**A.** > 100 µM (inactive)

**Q.** And the GI50 (M14)?
**A.** > 100 µM (inactive)

**Q.** And the GI50 (HCT-116)?
**A.** > 100 µM (inactive)

**Q.** What about the GI50 (UACC-62) of the same compound?
**A.** > 100 µM (inactive)

**Q.** What about the GI50 (SK-MEL-5) of the same compound?
**A.** 27 µM (inactive)

**Q.** What about the GI50 (OVCAR-4) of the same compound?
**A.** > 100 µM (inactive)

**Q.** What about the GI50 (SNB-19) of the same compound?
**A.** > 100 µM (inactive)

**Q.** What about the GI50 (NCI-H460) of the same compound?
**A.** > 100 µM (inactive)

**Q.** And the GI50 (SF-295)?
**A.** > 100 µM (inactive)

**Q.** What about the GI50 (OVCAR-8) of the same compound?
**A.** > 100 µM (inactive)

**Q.** And the GI50 (DU-145)?
**A.** > 100 µM (inactive)

**Q.** And the GI50 (MOLT-4)?
**A.** > 100 µM (inactive)

**Q.** What about the GI50 (IGROV-1) of the same compound?
**A.** > 100 µM (inactive)

**Q.** How did the GI50 (BT-549) turn out when `Sc1ncc(-c2cncc(-c3cnc(S)nc3)n2)cn1` was run?
**A.** > 100 µM (inactive)

**Q.** And the GI50 (UO-31)?
**A.** > 100 µM (inactive)

**Q.** What about the GI50 (U-251) of the same compound?
**A.** > 100 µM (inactive)

**Q.** And the GI50 (EKVX)?
**A.** > 100 µM (inactive)

**Q.** What about the GI50 (RXF 393) of the same compound?
**A.** > 100 µM (inactive)

**Q.** And the GI50 (HOP-92)?
**A.** > 100 µM (inactive)

**Q.** What about the GI50 (NCI/ADR-RES) of the same compound?
**A.** > 100 µM (inactive)

**Q.** What about the GI50 (OVCAR-3) of the same compound?
**A.** > 100 µM (inactive)

**Q.** And the GI50 (M14)?
**A.** > 100 µM (inactive)

**Q.** And the GI50 (HCT-116)?
**A.** > 100 µM (inactive)

**Q.** What about the GI50 (UACC-62) of the same compound?
**A.** > 100 µM (inactive)

**Q.** What about the GI50 (SK-MEL-5) of the same compound?
**A.** > 100 µM (inactive)

**Q.** What about the GI50 (OVCAR-4) of the same compound?
**A.** > 100 µM (inactive)

**Q.** What about the GI50 (SNB-19) of the same compound?
**A.** > 100 µM (inactive)

**Q.** What about the GI50 (NCI-H460) of the same compound?
**A.** > 100 µM (inactive)

**Q.** And the GI50 (SF-295)?
**A.** > 100 µM (inactive)

**Q.** And the GI50 (OVCAR-8)?
**A.** > 100 µM (inactive)

**Q.** What about the GI50 (DU-145) of the same compound?
**A.** > 100 µM (inactive)

**Q.** What about the GI50 (MOLT-4) of the same compound?
**A.** > 100 µM (inactive)

**Q.** And the GI50 (IGROV-1)?
**A.** > 100 µM (inactive)

**Q.** How did the GI50 (BT-549) turn out when `C[C@]12CC[C@H](O)C[C@H]1CC[C@@H]1[C@@H]2CC[C@]2(C)[C@@H](C3=CC(=O)OC3)[C@@H](O)C[C@]12O` [GITOXIGENIN] was run?
**A.** 1.89 µM (inactive)

**Q.** And the GI50 (UO-31)?
**A.** 0.914 µM (active)

**Q.** And the GI50 (U-251)?
**A.** 2.22 µM (inactive)

**Q.** And the GI50 (EKVX)?
**A.** 0.785 µM (active)

**Q.** What about the GI50 (RXF 393) of the same compound?
**A.** 1.15 µM (inactive)

**Q.** What about the GI50 (HOP-92) of the same compound?
**A.** 9.66 µM (inactive)

**Q.** And the GI50 (NCI/ADR-RES)?
**A.** 1.61 µM (inactive)

**Q.** And the GI50 (OVCAR-3)?
**A.** 0.457 µM (active)

**Q.** And the GI50 (M14)?
**A.** 2.45 µM (inactive)

**Q.** What about the GI50 (HCT-116) of the same compound?
**A.** 1.66 µM (inactive)

**Q.** And the GI50 (UACC-62)?
**A.** 2.62 µM (inactive)

**Q.** And the GI50 (SK-MEL-5)?
**A.** 1.3 µM (inactive)

**Q.** And the GI50 (OVCAR-4)?
**A.** 1.4 µM (inactive)

**Q.** What about the GI50 (SNB-19) of the same compound?
**A.** 4.45 µM (inactive)

**Q.** And the GI50 (NCI-H460)?
**A.** 0.499 µM (active)

**Q.** What about the GI50 (SF-295) of the same compound?
**A.** 1.41 µM (inactive)

**Q.** What about the GI50 (OVCAR-8) of the same compound?
**A.** 2.93 µM (inactive)

**Q.** What about the GI50 (DU-145) of the same compound?
**A.** 1.04 µM (active)

**Q.** What about the GI50 (MOLT-4) of the same compound?
**A.** 0.408 µM (active)

**Q.** What about the GI50 (IGROV-1) of the same compound?
**A.** 2.86 µM (inactive)

**Q.** Which GI50 (BT-549) does the source give for `Nc1ccc(S(=O)(=O)Nc2cnc3ccccc3n2)cc1` [SULFAQUINOXALINE] here?
**A.** > 100 µM (inactive)

**Q.** And the GI50 (UO-31)?
**A.** > 100 µM (inactive)

**Q.** And the GI50 (U-251)?
**A.** > 100 µM (inactive)

**Q.** And the GI50 (EKVX)?
**A.** > 100 µM (inactive)

**Q.** What about the GI50 (RXF 393) of the same compound?
**A.** > 100 µM (inactive)

**Q.** And the GI50 (HOP-92)?
**A.** > 100 µM (inactive)

**Q.** What about the GI50 (NCI/ADR-RES) of the same compound?
**A.** > 100 µM (inactive)

**Q.** And the GI50 (OVCAR-3)?
**A.** > 100 µM (inactive)

**Q.** And the GI50 (M14)?
**A.** > 100 µM (inactive)

**Q.** And the GI50 (HCT-116)?
**A.** > 100 µM (inactive)

**Q.** And the GI50 (UACC-62)?
**A.** > 100 µM (inactive)

**Q.** What about the GI50 (SK-MEL-5) of the same compound?
**A.** > 100 µM (inactive)

**Q.** And the GI50 (OVCAR-4)?
**A.** > 100 µM (inactive)

**Q.** And the GI50 (SNB-19)?
**A.** > 100 µM (inactive)

**Q.** What about the GI50 (NCI-H460) of the same compound?
**A.** > 100 µM (inactive)

**Q.** And the GI50 (SF-295)?
**A.** > 100 µM (inactive)

**Q.** And the GI50 (OVCAR-8)?
**A.** > 100 µM (inactive)

**Q.** And the GI50 (DU-145)?
**A.** > 100 µM (inactive)

**Q.** And the GI50 (MOLT-4)?
**A.** > 100 µM (inactive)

**Q.** And the GI50 (IGROV-1)?
**A.** > 96.6 µM (inactive)
